Data: US11484559B2, “Kapok tree flower extract, and cosmetic, pharmaceutical or dermatological compositions containing same” (Laboratoires Expanscience, priority 2017, dated 2022)

What was measured:
Prostaglandin E2 (PGE2) = experiment: Production of PGE2 in keratinocytes stimulated by PMA (ELISA); type: cell-based, human; conditions: indomethacin at 0.1 μM
Method: The keratinocytes were then stimulated by 10 μg/ml of PMA (Phorbol Myristate Acetate) and incubated overnight with KPO extract or reference molecules. […] The significance was evaluated by means of one-factor variance analysis followed by a Tukey test: *p<0.05; ***p<0.001; ns: non-significant p>0.05.

[1] = system: intracellular ROS (Reactive Oxygen Species); experiment: Production of ROS in keratinocytes subjected to H2O2 stress (DCFH-DA probe); type: cell-based, human; conditions: for ROS Mean: H2O2 100 μM
Method: The antioxidant potential of the KPO extract was evaluated in an assay model of intracellular ROS (Reactive Oxygen Species) induced by pro-oxidising H2O2 stress. Normal human epidermal keratinocytes were pre-incubated for 24 hours with KPO extract at 0.001%, 0.002% or 0.005% (d.e.) or reference anti-inflammatory molecules Quercetin at 10 μM or Vitamin C at 500 μM. The cell layer was then contacted with a DCFH-DA probe prior to induction of oxidative stress by 100 μM of H2O2. The amount of ROS produced was evaluated by measuring the fluorescence emitted when the probe is oxidised. The results were analysed statistically by one-factor variance analysis followed by a Tukey test: **p<0.01; ***p<0.001.

Dermatopontin = experiment: Gene expression in normal human dermal fibroblasts (RT-qPCR): Dermatopontin; type: cell-based; conditions: TGFβ1 5 ng/ml
Method: (§1) The effect of the KPO extract was evaluated on the gene expression of markers involved in cell communication and in the organisation of the dermal extracellular matrix in the fibroblasts: normal human dermal fibroblasts were incubated for 6 hours or 24 hours with 0.0005% or 0.001% KPO extract (d.e.) or TGFβ1 at 5 ng/ml (positive control for dermal matrix induction markers). At the end of incubation, the gene expression of the following markers was analysed by RT-qPCR. • CTNNA1 (Catenin α): binds to cadherins to promote cellular interactions. • Syndecan: proteoglycan which consolidates cell/cell and cell/matrix interactions. • Laminin 5 (α3β3γ2): a molecule that assists adhesion to the basal membrane. • TNC (Tenacin C): extracellular matrix proteins involved in cohesion of the dermo-epidermal junction and which promote the synthesis of collagen VII. • SPARC: protein associated with various constituents of the extracellular matrix and which contributes to its organisation. • BGN (Biglycan): proteoglycan involved in the assembly of collagen fibres. • Versican: a major component of the ECM which plays a central role in the morphogenesis and maintenance of tissues. […]
(§2) The results are given as relative quantities (RQ) with respect to the untreated control. […]

Syndecan = experiment: Gene expression in normal human dermal fibroblasts (RT-qPCR): Syndecan; type: cell-based; conditions: TGFβ1 5 ng/ml
Method: as §1, §2

TNC (Tenacin C) = experiment: Gene expression in normal human dermal fibroblasts (RT-qPCR): TNC; type: cell-based; conditions: TGFβ1 5 ng/ml
Method: as §1, §2

BGN (Biglycan) = experiment: Gene expression in normal human dermal fibroblasts (RT-qPCR): BGN; type: cell-based; conditions: TGFβ1 5 ng/ml
Method: as §1, §2

Collagen I = experiment: Gene expression in normal human dermal fibroblasts (RT-qPCR): Collagen I; type: cell-based; conditions: TGFβ1 5 ng/ml
Method: as §1, §2

Elastin = experiment: Gene expression in normal human dermal fibroblasts (RT-qPCR): Elastin; type: cell-based; conditions: TGFβ1 5 ng/ml
Method: as §1, §2

Versican = experiment: Gene expression in normal human dermal fibroblasts (RT-qPCR): Versican; type: cell-based; conditions: TGFβ1 5 ng/ml
Method: as §1, §2

Collagen III = experiment: Gene expression in normal human dermal fibroblasts (RT-qPCR): Collagen III; type: cell-based; conditions: TGFβ1 5 ng/ml
Method: as §1, §2

Collagen IV = experiment: Gene expression in normal human dermal fibroblasts (RT-qPCR): Collagen IV; type: cell-based; conditions: TGFβ1 5 ng/ml
Method: as §1, §2

SPARC = experiment: Gene expression in normal human dermal fibroblasts (RT-qPCR): SPARC; type: cell-based; conditions: TGFβ1 5 ng/ml
Method: as §1, §2

Collagen VII = experiment: Gene expression in normal human dermal fibroblasts (RT-qPCR): Collagen VII; type: cell-based; conditions: TGFβ1 5 ng/ml
Method: as §1, §2

CTNNA1 (Catenin α) = experiment: Gene expression in normal human dermal fibroblasts (RT-qPCR): CTNNA1; type: cell-based; conditions: TGFβ1 5 ng/ml
Method: as §1, §2

LOXL = experiment: Gene expression in normal human dermal fibroblasts (RT-qPCR): LOXL; type: cell-based; conditions: TGFβ1 5 ng/ml
Method: as §1, §2

Fibronectin = experiment: Gene expression in normal human dermal fibroblasts (RT-qPCR): Fibronectin; type: cell-based; conditions: TGFβ1 5 ng/ml
Method: as §1, §2

COc1ccc2c(c1)c(CC(=O)O)c(C)n2C(=O)c1ccc(Cl)cc1 [Indo, indomethacin]
PGE2 change vs PMA (Prostaglandin E2 (PGE2)): −77% vs PMA *** | PGE2 Mean (Prostaglandin E2 (PGE2); PMA stimulated): 181.780 (pg/ml)/OD neutral red

O=c1c(O)c(-c2ccc(O)c(O)c2)oc2cc(O)cc(O)c12 [Quercetin]
ROS change vs H2O2 ([1]; Quercetin at 10 μmol/l): −90% vs H2O2 *** | ROS Mean ([1]; Quercetin at 10 μmol/l): 12959.361 Arbitrary Unit

O=C1O[C@H]([C@@H](O)CO)C(O)=C1O [Vit C, Vitamin C]
ROS change vs H2O2 ([1]; Vit C 500 μM): −90% vs H2O2 *** | ROS Mean ([1]; Vit C 500 μM): 12807.703 Arbitrary Unit

TGFβ1: positive control for dermal matrix induction markers
Dermatopontin Degree of expression (Relative Quantity) (Dermatopontin; 6 h of treatment): 1.14 ns | Dermatopontin Degree of expression (Relative Quantity) (Dermatopontin; 24 h of treatment): 1.36 * | Syndecan Degree of expression (Relative Quantity) (Syndecan; 6 h of treatment): 1.85 ns | Syndecan Degree of expression (Relative Quantity) (Syndecan; 24 h of treatment): 8.08 *** | TNC Degree of expression (Relative Quantity) (TNC (Tenacin C); 6 h of treatment): 0.94 ns | TNC Degree of expression (Relative Quantity) (TNC (Tenacin C); 24 h of treatment): 1.79 * | BGN Degree of expression (Relative Quantity) (BGN (Biglycan); 6 h of treatment): 1.28 ns | BGN Degree of expression (Relative Quantity) (BGN (Biglycan); 24 h of treatment): 2.92 *** | Collagen I Degree of expression (Relative Quantity) (Collagen I; 6 h of treatment): 0.84 ns | Collagen I Degree of expression (Relative Quantity) (Collagen I; 24 h of treatment): 2.30 * | Elastin Degree of expression (Relative Quantity) (Elastin; 6 h of treatment): 0.72 ns | Elastin Degree of expression (Relative Quantity) (Elastin; 24 h of treatment): 3.65 ** | Versican Degree of expression (Relative Quantity) (Versican; 6 h of treatment): 1.61 ns | Versican Degree of expression (Relative Quantity) (Versican; 24 h of treatment): 2.87 ** | Collagen III Degree of expression (Relative Quantity) (Collagen III; 6 h of treatment): 0.91 ns | Collagen III Degree of expression (Relative Quantity) (Collagen III; 24 h of treatment): 1.24 ns | Collagen IV Degree of expression (Relative Quantity) (Collagen IV; 6 h of treatment): 1.68 *** | Collagen IV Degree of expression (Relative Quantity) (Collagen IV; 24 h of treatment): 2.81 ** | SPARC Degree of expression (Relative Quantity) (SPARC; 6 h of treatment): 1.28 ns | SPARC Degree of expression (Relative Quantity) (SPARC; 24 h of treatment): 2.00 *** | Collagen VII Degree of expression (Relative Quantity) (Collagen VII; 6 h of treatment): 1.96 *** | Collagen VII Degree of expression (Relative Quantity) (Collagen VII; 24 h of treatment): 3.07 *** | CTNNA1 Degree of expression (Relative Quantity) (CTNNA1 (Catenin α); 6 h of treatment): 1.07 ns | CTNNA1 Degree of expression (Relative Quantity) (CTNNA1 (Catenin α); 24 h of treatment): 1.07 ns | LOXL Degree of expression (Relative Quantity) (LOXL; 6 h of treatment): 1.05 ns | LOXL Degree of expression (Relative Quantity) (LOXL; 24 h of treatment): 1.10 ns | Fibronectin Degree of expression (Relative Quantity) (Fibronectin; 6 h of treatment): 1.09 ns | Fibronectin Degree of expression (Relative Quantity) (Fibronectin; 24 h of treatment): 2.12 *
